Source: paper PMC10804683, “Identification of the pyridoxal 5′‐phosphate allosteric site in human pyridox(am)ine 5′‐phosphate oxidase” (Protein Science : A Publication of the Protein Society, 2024)

Tests used:
human PNPO R161C variant = target: human PNPO R161C variant; parameters: method as in Barile et al., [2021]; settings: previous experiments, ref Barile et al., [2021]; cited from earlier work
[1] = target: T1, human PNPO F48A/E50L/H248N/R258L variant (Homo sapiens, UniProt Q9NVS9, E50L/F48A/H248N/R258L); experiment: PLP inhibition kinetics of PNP oxidation, quadruple variant; format: biochemical; settings: Na-HEPES pH 7.6, 2 μM enzyme, PLP 0–16 μM
T1 construct: a main form corresponding to the entire protein; made in house; host or cells: E. coli BL21(DE3)
T1 sequence (Q9NVS9 1-261 F48A/E50L/H248N/R258L): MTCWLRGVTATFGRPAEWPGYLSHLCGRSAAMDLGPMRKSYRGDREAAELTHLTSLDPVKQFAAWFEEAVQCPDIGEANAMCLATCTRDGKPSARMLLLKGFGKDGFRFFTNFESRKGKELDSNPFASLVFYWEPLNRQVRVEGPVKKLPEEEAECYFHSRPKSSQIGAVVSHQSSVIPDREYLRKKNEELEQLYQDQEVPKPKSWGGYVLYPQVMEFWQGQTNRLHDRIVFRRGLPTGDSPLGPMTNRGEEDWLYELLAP
Protocol: This is a general inhibition mechanism that takes into account the possibility of PLP binding to both the active and allosteric sites. PLP binding at the active site gives a complete, competitive inhibition, whereas PLP binding at the allosteric site yields a substrate‐enzyme‐PLP ternary complex that is still catalytically active, although k CAT is reduced by a coefficient whose value is around 0.15. A thorough inhibition kinetic characterization was carried out with the wild type, F48A, F48A/E50L/R258L, and F48A/E50L/H248N/R258L PNPO forms, so as to evaluate the effect of the variations on the allosteric properties of the enzyme. The initial velocity of PNP conversion into PLP was measured in Na‐HEPES buffer (in which PLP is allowed to accumulate) by varying substrate concentration at different, fixed exogenous PLP concentrations, using 2 μM enzyme. A series of saturation curves were obtained that were used to fit the Michaelis–Menten equation (Figure 5), acquiring apparent V MAX and K M values as a function of PLP concentration. […]
FIGURE 5 Characterization of PLP inhibition. Upper panels: The initial velocity of the reaction was measured with 2 μM wild type (a), and the F48A (b), F48A/E50L/R258L (c), and F48A/E50L/H248N/R258L (d) PNPO variants, varying PNP concentration while keeping exogenous PLP fixed at different concentrations (0, 0.25, 0.5, 1, 2, 4, 8, and 16 μM). […]

Cc1ncc(COP(=O)(O)O)c(C=O)c1O [PLP, pyridoxal 5′‐phosphate]
PLP binding KD^DSF (human PNPO R161C variant): No binding
type of inhibition of PNP oxidation by PLP [1]: pure competitive inhibition
